This is an account of results in patent publication US20250000863A1, “COMBINATION THERAPIES OF KRAS G12D INHIBITORS WITH SOS1 INHIBITORS” (MIRATI THERAPEUTICS, INC., priority 2021, published 2025).

For this assay, the system named is AsPC-1 cells. In words: AsPC-1 TGI-70 xenograft tumor volume study. Type of assay: in vivo, nude/nude mice. To be noted: for Average Tumor Volumes: MRTX0902 50 mg/kg BID daily, alone or combined, 5 mice per group. The source says:
Experimental Procedures. 20 nude/nude mice were inoculated with AsPC-1 cells in the right hind flank. When the tumors reached ˜200 mm^3 four treatment groups were established with five mice per group.

Where the note is “Day 13, MRTX0902 50 mg/kg BID daily as a single agent”, `Cc1c(C#N)cccc1[C@@H](C)Nc1nnc(C)c2cnc(N3CCOCC3)cc12` [MRTX0902] gave a tumor growth inhibition of 26%. The “Average Tumor Volumes” value is recorded as 194.8 mm^3 (Study Day 1, MRTX1133 30 mg/kg BID daily); 215.066 mm^3 (Study Day 6, MRTX1133 30 mg/kg BID daily); 220.892 mm^3 (Study Day 9, MRTX1133 30 mg/kg BID daily); 262.374 mm^3 (Study Day 13, MRTX1133 30 mg/kg BID daily); 316.164 mm^3 (Study Day 16, MRTX1133 30 mg/kg BID daily); 387.59 mm^3 (Study Day 20, MRTX1133 30 mg/kg BID daily). Moreover, under “Study Day 23, MRTX1133 30 mg/kg BID daily”, the “Average Tumor Volumes” value is 480.782 mm^3.

Consider `C#Cc1c(F)ccc2cc(O)cc(-c3ncc4c(N5C[C@H]6CC[C@@H](C5)N6)nc(OC[C@@]56CCCN5C[C@H](F)C6)nc4c3F)c12` [MRTX1133, 4-(4-((1R,5S)-3,8-diazabicyclo[3.2.1]octan-3-yl)-8-fluoro-2-(((2R,7aS)-2-fluorohexahydro-1H-pyrrolizin-7a-yl)methoxy)pyrido[4,3-d]pyrimidin-7-yl)-5-ethynyl-6-fluoronaphthalen-2-ol], for which the tumor regression (Day 13, MRTX1133 30 mg/kg BID daily, alone or with MRTX0902 twice daily) was found to be 26%.
